Measurements taken from US3950513A, “Process of stabilizing therapeutically useful plasmin solutions” (Novo Terapeutisk Laboratorium A/S, priority 1969, dated 1976).
Entries after “also recorded” stand apart in the source; their conditions may differ. Read-outs that look alike come from different tables or passages of the source. Where a SMILES comes first, the peptide text is derived from it.

Legend:
[1] = biological target: T1, plasmin originating from swine blood (Sus scrofa, UniProt P06867); test: Stabilizing effect of amino acids on plasmin solution, residual plasmin activity (casein) on storage; assay type: biochemical; settings: 35.5°C, employed concentration 0.25 millimole per plasmin unit
T1 construct: from tissue; host or cells: swine blood
Method: (§1) Usually the activity of plasmin solutions is expressed in the number of plasmin units per milliliter. However, no definition of a plasmin unit has until now been internationally adopted. Here and in the following one plasmin unit means the amount of plasmin causing in 20 minutes the formation of decomposition products being soluble in perchloric acid and having an extinction of 1 unit at 275 mμ under the following experimental conditions:
(§2) By the addition of the perchloric acid a precipitation takes place, and the two test tubes now stand for 20 minutes whereafter filtration two times through filtering paper (J. H. Munktells unrivalled Genuine Swedish Filtering Paper No. 0.9 cm) is carried out. The extinction of the two solutions is thereafter measured at 275 mμ in a Beckman D U Spectrophotometer (1 cm quartz cuvette), the value of the sample having stood for 2 minutes being used as blind value.
If not, a saturated amino acid solution is employed.

[2] = biological target: T2, plasmin (Sus scrofa, UniProt P06867); assay type: biochemical, swine; settings: for % activity after 120 min. at 25°C / % activity after 60 min. at 25°C: 0.3 plasmin units per ml
Method: as §1
as §2, with “1 […] THE PLASMIN SOLUTION THE ACTIVITY OF WHICH IS TO BE […] THE PH of which is 7.5 is added to two test tubes each containing in 0.4 molar phosphate buffer (pH 7.50) 1 […] a 3 per cent's solution of Hammarsten Casein said solution having been preheated to 35.5°C. […] By” for “By”
The stabilizing effect of a long series of amino acids has been examined in connection with plasmin originating from swine blood and dissolved in phosphate buffer (pH 7.5). […] If not, a saturated amino acid solution is employed.

[3] = biological target: T3, plasmin solution from swine blood (Sus scrofa, UniProt P06867); test: Plasmin activity at high amino acid concentration and after dilution (reversible inactivation); assay type: biochemical
T3 construct: from tissue; host or cells: swine blood
Method: as §1
as §2, with “1 […] OF THE PLASMIN SOLUTION THE ACTIVITY OF WHICH IS TO BE DETERMINED AND THE PH of which is 7.5 is added to two test tubes each containing in 0.4 molar phosphate buffer (pH 7.50) 1 milliliter of a 3 per cent's solution of Hammarsten Casein said solution having been preheated to 35.5°C. […] By” for “By”
By way of illustration reference may be made to the following experiments:
a. A plasmin solution from swine blood and containing about 0.4 plasmin unit per milliliter and 2 millimoles of L-lysine per plasmin unit is produced in phosphate buffer (pH 7.5) whereafter the plasmin activity of the mixture is determined and compared with the activity of the plasmin solution without the amino acid addition and the activity of the mixture is expressed in per cent of the activity of the unmixed plasmin solution. Thereafter a dilution of the solution is carried out expressed in the original volume of the plasmin solution divided by the volume of the plasmin solution after the dilution, and the activity of the diluted solutions is determined.

[4] = biological target: T2, plasmin; test: Initial loss of plasmin on adjusting concentrated acidified solution to pH 7.5; assay type: biochemical; settings: 10 plasmin units per ml adjusted to pH 7.5 at 25°C
Text: In the tests referred to above use has been made of plasmin solutions having a plasmin content of 0.3 and 0.4 units, respectively, per milliliter. When using more concentrated solutions, e.g. containing 10 plasmin units per milliliter, an appreciable initial loss of plasmin will occur immediately by the adjustment of the pH-value from 2-3 up to neutral reaction unless amino acids are present in sufficient amounts. Thus, in the course of a few minutes an initial loss of 20 per cent may e.g. arise when an acidified plasmin solution containing 10 plasmin units per milliliter is adjusted to pH 7.5 at 25°C even if lysine is present in the solution in an amount of 0.002 millimole per plasmin unit. Such initial loss can, however, be avoided by increasing the amino acid concentration.

[5] = system: partially purified plasmin from human plasma; settings: cited from earlier work; for effect on autolysis of plasmin: neutral solutions, 37°C
[6] = biological target: plasmin (Homo sapiens, UniProt P00747); settings: plasmin about 0.047 to about 0.229 units per ml; cited from earlier work
[7] = Stability of plasmin solutions without amino acid
Text: Further, it is possible to produce a sterile plasmin solution which is adjusted to pH 1 to 4. […] By mixing such solution before use with a sterile amino acid solution which has either been buffered with one of the normal acid-base-buffer systems or has a sufficient amino acid content, it is possible to obtain a neutral stable plasmin solution.

[8] = Solubility of plasmin in neutral aqueous solution; assay type: physicochemical; settings: no amino acid
Text: While a neutral solution of plasmin in water becomes turbid due to a precipitation of plasmin when the plasmin concentration is 0.01 unit and more per milliliter, it is possible by the addition of an amino acid to produce clear neutral plasmin solutions having a plasmin concentration up to 25 units per milliliter.

[9] = 0.010 millimole L-lysine per plasmin unit
[10] = 0.021 millimole L-lysine per plasmin unit
[11] = 0.042 millimole L-lysine per plasmin unit
[12] = pH 7.5, read-out: Activity expressed in per cent of the total activity

T1 sequence (P06867 97-579 limits assumed): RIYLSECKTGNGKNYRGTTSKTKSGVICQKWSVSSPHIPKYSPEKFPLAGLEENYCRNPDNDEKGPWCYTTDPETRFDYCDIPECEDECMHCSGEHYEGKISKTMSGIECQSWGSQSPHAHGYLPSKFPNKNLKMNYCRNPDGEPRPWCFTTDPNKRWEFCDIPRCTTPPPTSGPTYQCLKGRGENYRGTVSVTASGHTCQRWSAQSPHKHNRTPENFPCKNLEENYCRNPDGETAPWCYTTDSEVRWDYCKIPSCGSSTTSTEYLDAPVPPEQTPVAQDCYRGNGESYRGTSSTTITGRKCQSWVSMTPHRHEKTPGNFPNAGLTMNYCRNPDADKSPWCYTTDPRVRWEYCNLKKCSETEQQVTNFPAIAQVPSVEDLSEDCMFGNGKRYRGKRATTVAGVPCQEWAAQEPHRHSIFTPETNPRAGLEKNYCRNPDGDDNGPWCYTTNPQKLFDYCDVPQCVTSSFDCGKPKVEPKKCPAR
T1 sequence (P06867 580-809 limits assumed): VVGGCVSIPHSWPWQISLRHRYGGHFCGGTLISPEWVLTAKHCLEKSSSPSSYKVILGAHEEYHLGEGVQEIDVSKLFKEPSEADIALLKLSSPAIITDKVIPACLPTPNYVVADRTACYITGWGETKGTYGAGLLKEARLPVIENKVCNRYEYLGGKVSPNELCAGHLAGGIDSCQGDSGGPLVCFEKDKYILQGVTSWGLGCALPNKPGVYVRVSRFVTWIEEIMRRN
T3 sequence (P06867 97-579 limits assumed): as the sequence (P06867 97-579 limits assumed) above
T3 sequence (P06867 580-809 limits assumed): as the sequence (P06867 580-809 limits assumed) above
T2 sequence (P06867 97-579 limits assumed): as the sequence (P06867 97-579 limits assumed) above
T2 sequence (P06867 580-809 limits assumed): as the sequence (P06867 580-809 limits assumed) above

CSCCC(N)C(=O)O (racemic) [DL-methionine]
stabilizing effect (in words) [1]: possible to obtain a stabilizing effect

CN(CC(=O)O)C(=N)N [Creatine]
stabilizing effect (in words) [1]: considerably better than that of glycine and DL-valine

NCC(=O)O [Glycine]
stabilizing effect (in words) [1]: rather insignificant; also recorded: faintly stabilizing effect

NCC(=O)NCC(=O)O [Glycyl glycine] (H-Gly-Gly-OH)
stabilizing effect (in words) [1]: strongly stabilizing effect

N=C(N)NCC(=O)O [Guanidino acetic acid]
stabilizing effect (in words) [1]: considerably better than that of glycine and DL-valine

N[C@@H](CC(=O)O)C(=O)O [L(+)-aspartic acid]
stabilizing effect (in words) [1]: almost identical with that of glycine

O=C(O)[C@@H]1C[C@@H](O)CN1 [L(-)-hydroxyproline]
stabilizing effect (in words) [1]: limited stabilizing effect

O=C(O)[C@@H]1CCCN1 [L(-)-proline]
stabilizing effect (in words) [1]: limited stabilizing effect

NCCCC[C@H](N)C(=O)O [L-lysine]
% activity after 120 min. at 25°C ([2]; 0.005 millimole L-lysine per plasmin unit, without lysine 70): 78% | % activity after 60 min. at 25°C ([2]; 0.005 millimole L-lysine per plasmin unit, without lysine 77): 88% | % activity after 60 min. at 25°C [2, 9]: 91% | % activity after 120 min. at 25°C [2, 9]: 84% | % activity after 60 min. at 25°C [2, 10]: 99% | % activity after 120 min. at 25°C [2, 10]: 91% | % activity after 60 min. at 25°C [2, 11]: 100% | % activity after 120 min. at 25°C [2, 11]: 99% | lysine concentration necessary to avoid a plasmin loss by standing for two hours ([2]; 25°C): 0.04 millimole per plasmin unit | lysine concentration sufficient to allow only a plasmin loss of about 20 per cent by standing for 2 hours ([2]; 25°C): about 0.005 millimole per plasmin unit | lysine concentration necessary to allow only a plasmin loss of about 20 per cent by standing for 2 hours ([2]; 35.5°C): about 0.1 millimole per plasmin unit | lysine concentration necessary to avoid a plasmin loss by standing for two hours ([2]; 35.5°C, plasmin concentration of 0.4 plasmin units per ml): above 0.25 millimole per plasmin unit | reversibility of the inactivation by dilution ([3]; Table IV): reversible | activity at 160000 µM [3, 12]: 97% | activity at 320000 µM [3, 12]: 100% | activity at 480000 µM [3, 12]: 92% | activity at 640000 µM [3, 12]: 84% | activity at 800000 µM [3, 12]: 88% | lysine concentration above which it has an inactivating effect on the plasmin solution ([3]; plasmin concentration 1/2 unit per millimole lysine): above 0.32 millimole per ml | stabilizing effect (in words) [1]: strongly stabilizing effect | stabilizing effect (in words) ([1]; listed as lysine): most vigorous stabilizing effect | initial loss of plasmin in the course of a few minutes ([4]; lysine 0.002 millimole per plasmin unit): 20 per cent | initial loss of plasmin ([4]; lysine 0.04 millimole per plasmin unit): avoid completely an initial loss

CN [methylamine]
effect on autolysis of plasmin [5]: may inhibit this autolysis

NC(N)=O [urea]
effect on autolysis of plasmin [5]: may inhibit this autolysis

CC(=O)N[C@@H](CCCNC(=N)N)C(=O)O [α-N-acetyl-L-arginine]
stabilizing effect (in words) [1]: excellent stabilizing effect

NCCCC(=O)O [γ-amino butyric acid]
stabilizing effect (in words) [1]: stabilize considerably better than β-alanine

NCCCCCC(=O)O [ε-amino caproic acid]
activity at 800000 µM ([3]; Undiluted, 0.8 millimole amino acid per ml, 2 millimoles per plasmin unit, about 0.4 unit per ml, pH 7.5, read-out: Activity expressed in per cent of the total activity): 57% | activity at 160000 µM ([3]; pH 7.5, Dilution 1:5, 0.16 millimole amino acid per ml, read-out: Activity expressed in per cent of the total activity): 93% | activity at 320000 µM ([3]; pH 7.5, Dilution 2:5, 0.32 millimole amino acid per ml, read-out: Activity expressed in per cent of the total activity): 84% | activity at 480000 µM ([3]; pH 7.5, Dilution 3:5, 0.48 millimole amino acid per ml, read-out: Activity expressed in per cent of the total activity): 71% | activity at 640000 µM ([3]; pH 7.5, Dilution 4:5, 0.64 millimole amino acid per ml, read-out: Activity expressed in per cent of the total activity): 65% | stabilizing effect (in words) [1]: stabilize considerably better than β-alanine | stabilizing effect (in words) ([1]; listed as ε-amino caproic acids): strongly stabilizing effect | concentration at which it acts as an inhibitor of the action of plasmin [6]: above 0.03 M | concentration at which it exhibits an enhancing effect on the action of plasmin [6]: up to 0.02 M

B1: plasmin: proteolytic enzyme plasmin in aqueous solution without amino acid addition (protein, UniProt P00747 20-580; P00747 581-810, looked up)
Plasmin heavy chain A: EPLDDYVNTQGASLFSVTKKQLGAGSIEECAAKCEEDEEFTCRAFQYHSKEQQCVIMAENRKSSIIIRMRDVVLFEKKVYLSECKTGNGKNYRGTMSKTKNGITCQKWSSTSPHRPRFSPATHPSEGLEENYCRNPDNDPQGPWCYTTDPEKRYDYCDILECEEECMHCSGENYDGKISKTMSGLECQAWDSQSPHAHGYIPSKFPNKNLKKNYCRNPDRELRPWCFTTDPNKRWELCDIPRCTTPPPSSGPTYQCLKGTGENYRGNVAVTVSGHTCQHWSAQTPHTHNRTPENFPCKNLDENYCRNPDGKRAPWCHTTNSQVRWEYCKIPSCDSSPVSTEQLAPTAPPELTPVVQDCYHGDGQSYRGTSSTTTTGKKCQSWSSMTPHRHQKTPENYPNAGLTMNYCRNPDADKGPWCFTTDPSVRWEYCNLKKCSGTEASVVAPPPVVLLPDVETPSEEDCMFGNGKGYRGKRATTVTGTPCQDWAAQEPHRHSIFTPETNPRAGLEKNYCRNPDGDVGGPWCYTTNPRKLYDYCDVPQCAAPSFDCGKPQVEPKKCPGR
Plasmin light chain B: VVGGCVAHPHSWPWQVSLRTRFGMHFCGGTLISPEWVLTAAHCLEKSPRPSSYKVILGAHQEVNLEPHVQEIEVSRLFLEPTRKDIALLKLSSPAVITDKVIPACLPSPNYVVADRTECFITGWGETQGTFGAGLLKEAQLPVIENKVCNRYEFLNGRVQSTELCAGHLAGGTDSCQGDSGGPLVCFEKDKYILQGVTSWGLGCARPNKPGVYVRVSRFVTWIEGVMRNN
modifications: Plasmin
notes: proteolytic enzyme plasmin in aqueous solution without amino acid addition
plasmin concentration above which neutral solutions must be considered unstable ([7]; criterion: highest permissible loss 20 per cent in 2 hours at 25°C): more than 0.1 unit per milliliter | stability of acid sterile plasmin solution ([7]; pH 1 to 4, stored at 4°-5°C): stable for several months | stability of aqueous plasmin solution ([7]; pH-value of 2 to 3, temperatures up to 35°C): practically completely stable | stability in neutral solutions ([5]; rapid loss of proteolytic activity at 37°C): unstable | plasmin concentration at which a neutral solution in water becomes turbid due to precipitation of plasmin [8]: ≥ 0.01 unit per milliliter
